# Measurements from patent publication US20210267944A1 (BioXcel Therapeutics, Inc., priority 2018, published 2021).
# Counter-ions that a name gives are not always drawn. Like-named read-outs stand apart in the source and are kept apart here.
# Conditions: for Diastolic blood pressure Mean ± SD / Diastolic blood pressure Median / Diastolic blood pressure Min / Heart rate Max / Heart rate Mean ± SD / Heart rate Median / Heart rate Min / Diastolic blood pressure Max / Systolic blood pressure, Max / Systolic blood pressure, Mean ± SD / Systolic blood pressure, Median / Systolic blood pressure, Min: opioid withdrawal patients
# Description: The participants were continuously monitored by the site personnel, including blood pressure and heart rate, from the start of the infusion through resolution of sedation and/or any adverse effects on blood pressure or heart rate. An electrocardiogram was obtained at screening, pre-infusion and upon resolution of sedation, a predetermined reduction in COWS or return to baseline.
# [1] = Day-1, 30 min. post Infusion, n=11
# [2] = Day-2, 30 min. post Infusion, n=5
# [3] = opioid withdrawal, during infusion
compound,measurement,setting,value
Cc1cccc([C@H](C)c2cnc[nH]2)c1C [dexmedetomidine hydrochloride],Diastolic blood pressure Mean ± SD,"Day-2, 01:15 Hr",78.5 ± 22.5 mm of Hg
same,Diastolic blood pressure Median,"Day-2, 01:15 Hr",78.5 mm of Hg
same,Diastolic blood pressure Min,"Day-2, 01:15 Hr",56 mm of Hg
same,Heart rate Max,"Day-2, 01:15 Hr",100 beats/minutes
same,Heart rate Mean ± SD,"Day-2, 01:15 Hr",88 ± 12 beats/minutes
same,Heart rate Median,"Day-2, 01:15 Hr",88 beats/minutes
same,Heart rate Min,"Day-2, 01:15 Hr",76 beats/minutes
same,Diastolic blood pressure Max,"Day-2, 01:30 Hr",75 mm of Hg
same,Diastolic blood pressure Mean ± SD,"Day-2, 01:30 Hr",75 mm of Hg
same,Diastolic blood pressure Median,"Day-2, 01:30 Hr",75 mm of Hg
same,Diastolic blood pressure Min,"Day-2, 01:30 Hr",75 mm of Hg
same,Heart rate Max,"Day-2, 01:30 Hr",73 beats/minutes
same,Heart rate Mean ± SD,"Day-2, 01:30 Hr",73 beats/minutes
same,Heart rate Median,"Day-2, 01:30 Hr",73 beats/minutes
same,Heart rate Min,"Day-2, 01:30 Hr",73 beats/minutes
same,Diastolic blood pressure Max,"Day-2, 01:45 Hr",89 mm of Hg
same,Diastolic blood pressure Mean ± SD,"Day-2, 01:45 Hr",89 mm of Hg
same,Diastolic blood pressure Median,"Day-2, 01:45 Hr",89 mm of Hg
same,Diastolic blood pressure Min,"Day-2, 01:45 Hr",89 mm of Hg
same,Heart rate Max,"Day-2, 01:45 Hr",92 beats/minutes
same,Heart rate Mean ± SD,"Day-2, 01:45 Hr",92 beats/minutes
same,Heart rate Median,"Day-2, 01:45 Hr",92 beats/minutes
same,Heart rate Min,"Day-2, 01:45 Hr",92 beats/minutes
same,Diastolic blood pressure Max,"Day-2, 02:00 Hr",90 mm of Hg
same,Diastolic blood pressure Mean ± SD,"Day-2, 02:00 Hr",90 mm of Hg
same,Diastolic blood pressure Median,"Day-2, 02:00 Hr",90 mm of Hg
same,Diastolic blood pressure Min,"Day-2, 02:00 Hr",90 mm of Hg
same,Heart rate Max,"Day-2, 02:00 Hr",94 beats/minutes
same,Heart rate Mean ± SD,"Day-2, 02:00 Hr",94 beats/minutes
same,Heart rate Median,"Day-2, 02:00 Hr",94 beats/minutes
same,Heart rate Min,"Day-2, 02:00 Hr",94 beats/minutes
same,Diastolic blood pressure Max,"Day-2, 30 min. post Infusion",98 mm of Hg
same,Diastolic blood pressure Mean ± SD,"Day-2, 30 min. post Infusion",84.4 ± 9.24 mm of Hg
same,Diastolic blood pressure Median,"Day-2, 30 min. post Infusion",86 mm of Hg
same,Diastolic blood pressure Min,"Day-2, 30 min. post Infusion",70 mm of Hg
same,Heart rate Max,"Day-2, 30 min. post Infusion",90 beats/minutes
same,Heart rate Mean ± SD,"Day-2, 30 min. post Infusion",70.8 ± 15.72 beats/minutes
same,Heart rate Median,"Day-2, 30 min. post Infusion",60 beats/minutes
same,Heart rate Min,"Day-2, 30 min. post Infusion",56 beats/minutes
same,all the vital signs values,opioid withdrawal,within clinically acceptable limits
same,"Systolic blood pressure, Max","Day-1, 00:00 Hr, n=11",178 mm of Hg
same,"Systolic blood pressure, Mean ± SD","Day-1, 00:00 Hr, n=11",134 ± 15.77 mm of Hg
same,"Systolic blood pressure, Median","Day-1, 00:00 Hr, n=11",127 mm of Hg
same,"Systolic blood pressure, Min","Day-1, 00:00 Hr, n=11",120 mm of Hg
same,"Systolic blood pressure, Max","Day-1, 00:15 Hr, n=11",157 mm of Hg
same,"Systolic blood pressure, Mean ± SD","Day-1, 00:15 Hr, n=11",129.73 ± 13.68 mm of Hg
same,"Systolic blood pressure, Median","Day-1, 00:15 Hr, n=11",127 mm of Hg
same,"Systolic blood pressure, Min","Day-1, 00:15 Hr, n=11",112 mm of Hg
same,"Systolic blood pressure, Max","Day-1, 00:30 Hr, n=9",160 mm of Hg
same,"Systolic blood pressure, Mean ± SD","Day-1, 00:30 Hr, n=9",124.78 ± 15.55 mm of Hg
same,"Systolic blood pressure, Median","Day-1, 00:30 Hr, n=9",128 mm of Hg
same,"Systolic blood pressure, Min","Day-1, 00:30 Hr, n=9",107 mm of Hg
same,"Systolic blood pressure, Max","Day-1, 00:45 Hr, n=6",125 mm of Hg
same,"Systolic blood pressure, Mean ± SD","Day-1, 00:45 Hr, n=6",113 ± 8.24 mm of Hg
same,"Systolic blood pressure, Median","Day-1, 00:45 Hr, n=6",114 mm of Hg
same,"Systolic blood pressure, Min","Day-1, 00:45 Hr, n=6",100 mm of Hg
same,"Systolic blood pressure, Max","Day-1, 01:00 Hr, n=5",120 mm of Hg
same,"Systolic blood pressure, Mean ± SD","Day-1, 01:00 Hr, n=5",114 ± 4.85 mm of Hg
same,"Systolic blood pressure, Median","Day-1, 01:00 Hr, n=5",115 mm of Hg
same,"Systolic blood pressure, Min","Day-1, 01:00 Hr, n=5",107 mm of Hg
same,"Systolic blood pressure, Max","Day-1, 01:15 Hr, n=3",112 mm of Hg
same,"Systolic blood pressure, Mean ± SD","Day-1, 01:15 Hr, n=3",110 ± 1.63 mm of Hg
same,"Systolic blood pressure, Median","Day-1, 01:15 Hr, n=3",110 mm of Hg
same,"Systolic blood pressure, Min","Day-1, 01:15 Hr, n=3",108 mm of Hg
same,"Systolic blood pressure, Max","Day-1, 01:30 Hr, n=2",112 mm of Hg
same,"Systolic blood pressure, Mean ± SD","Day-1, 01:30 Hr, n=2",106.5 ± 5.5 mm of Hg
same,"Systolic blood pressure, Median","Day-1, 01:30 Hr, n=2",106.5 mm of Hg
same,"Systolic blood pressure, Min","Day-1, 01:30 Hr, n=2",101 mm of Hg
same,"Systolic blood pressure, Max",[1],160 mm of Hg
same,"Systolic blood pressure, Mean ± SD",[1],130.91 ± 18.09 mm of Hg
same,"Systolic blood pressure, Median",[1],129 mm of Hg
same,"Systolic blood pressure, Min",[1],108 mm of Hg
same,"Systolic blood pressure, Max","Day-1, Screening, n=11",170 mm of Hg
same,"Systolic blood pressure, Mean ± SD","Day-1, Screening, n=11",130.36 ± 16.92 mm of Hg
same,"Systolic blood pressure, Median","Day-1, Screening, n=11",127 mm of Hg
same,"Systolic blood pressure, Min","Day-1, Screening, n=11",110 mm of Hg
same,"Systolic blood pressure, Max","Day-2, 00:00 Hr, n=5",141 mm of Hg
same,"Systolic blood pressure, Mean ± SD","Day-2, 00:00 Hr, n=5",127.2 ± 11.37 mm of Hg
same,"Systolic blood pressure, Median","Day-2, 00:00 Hr, n=5",133 mm of Hg
same,"Systolic blood pressure, Min","Day-2, 00:00 Hr, n=5",109 mm of Hg
same,"Systolic blood pressure, Max","Day-2, 00:15 Hr, n=5",139 mm of Hg
same,"Systolic blood pressure, Mean ± SD","Day-2, 00:15 Hr, n=5",123.6 ± 13.41 mm of Hg
same,"Systolic blood pressure, Median","Day-2, 00:15 Hr, n=5",131 mm of Hg
same,"Systolic blood pressure, Min","Day-2, 00:15 Hr, n=5",103 mm of Hg
same,"Systolic blood pressure, Max","Day-2, 00:30 Hr, n=5",137 mm of Hg
same,"Systolic blood pressure, Mean ± SD","Day-2, 00:30 Hr, n=5",121.6 ± 12.15 mm of Hg
same,"Systolic blood pressure, Median","Day-2, 00:30 Hr, n=5",125 mm of Hg
same,"Systolic blood pressure, Min","Day-2, 00:30 Hr, n=5",106 mm of Hg
same,"Systolic blood pressure, Max","Day-2, 00:45 Hr, n=4",131 mm of Hg
same,"Systolic blood pressure, Mean ± SD","Day-2, 00:45 Hr, n=4",123.15 ± 9.17 mm of Hg
same,"Systolic blood pressure, Median","Day-2, 00:45 Hr, n=4",128 mm of Hg
same,"Systolic blood pressure, Min","Day-2, 00:45 Hr, n=4",108 mm of Hg
same,"Systolic blood pressure, Max","Day-2, 01:00 Hr, n=3",132 mm of Hg
same,"Systolic blood pressure, Mean ± SD","Day-2, 01:00 Hr, n=3",124.33 ± 9.46 mm of Hg
same,"Systolic blood pressure, Median","Day-2, 01:00 Hr, n=3",130 mm of Hg
same,"Systolic blood pressure, Min","Day-2, 01:00 Hr, n=3",111 mm of Hg
same,"Systolic blood pressure, Max","Day-2, 01:15 Hr, n=2",130 mm of Hg
same,"Systolic blood pressure, Mean ± SD","Day-2, 01:15 Hr, n=2",115.5 ± 14.5 mm of Hg
same,"Systolic blood pressure, Median","Day-2, 01:15 Hr, n=2",115.5 mm of Hg
same,"Systolic blood pressure, Min","Day-2, 01:15 Hr, n=2",101 mm of Hg
same,"Systolic blood pressure, Mean ± SD","Day-2, 01:30 Hr, n=1",114 mm of Hg
same,"Systolic blood pressure, Median","Day-2, 01:30 Hr, n=1",114 mm of Hg
same,"Systolic blood pressure, Mean ± SD","Day-2, 01:45 Hr, n=1",112 mm of Hg
same,"Systolic blood pressure, Median","Day-2, 01:45 Hr, n=1",112 mm of Hg
same,"Systolic blood pressure, Mean ± SD","Day-2, 02:00 Hr, n=1",114 mm of Hg
same,"Systolic blood pressure, Median","Day-2, 02:00 Hr, n=1",114 mm of Hg
same,"Systolic blood pressure, Max",[2],146 mm of Hg
same,"Systolic blood pressure, Mean ± SD",[2],127.6 ± 13.1 mm of Hg
same,"Systolic blood pressure, Median",[2],130 mm of Hg
same,"Systolic blood pressure, Min",[2],110 mm of Hg
same,"Diastolic blood pressure mean values, in words",[3],within clinically acceptable limits
same,"Heart rate mean values, in words",[3],within clinically acceptable limits
same,"Systolic blood pressure mean values, in words",[3],within clinically acceptable limits
same,heart rate at which stopping criteria was met,"opioid withdrawal, one patient, after 15 minutes",≤ 50
